In series [1] the target is Indoleamine 2,3-dioxygenase 1 (Mus musculus, UniProt P28776). Put plainly: Inhibition of IDO1 in IFNgamma-stimulated mouse M109 cells preincubated for 2 hrs followed by IFNgamma stimulation and measured after 18 hrs by. It counts as cell-based.
The target of series [2] is T1, Indoleamine 2,3-dioxygenase 1 (Homo sapiens, UniProt P14902). Put plainly: Inhibition of IDO1 in IFNgamma/LPS-stimulated human whole blood preincubated for 4 hrs followed by IFNgamma/LPS stimulation and incubated for 18 hrs by Rapid-fire mass spectrometry analysis. It counts as tissue-based.
In series [3] the target is T1, Indoleamine 2,3-dioxygenase 1. Put plainly: Inhibition of IDO1 in IFNgamma-stimulated human HeLa cells preincubated for 2 hrs followed by IFNgamma stimulation and measured after 18 hrs by.
Series [4] can be described thus: in vitro. As to conditions: mouse, liver microsomes.
Description: Metabolic stability in mouse liver microsomes assessed as parent compound remaining at 0.5 uM measured after 10 mins
Series [5] in a line: in vitro. As to conditions: human, liver microsomes.
Description: Metabolic stability in human liver microsomes assessed as parent compound remaining at 0.5 uM measured after 10 mins
The nature of series [6]: Aqueous solubility of the compound at pH 6.5. It counts as physicochemical. As to conditions: buffer.
Series [7] can be described thus: Solubility of the compound at pH 6.5 to 7.4. To be noted: buffer. The class given is physicochemical.
A short description of series [8]: in vivo. To be noted: nu/nu, mouse, tumor, po, 60 mg/kg.
Description: AUC (0 to 24 hrs) in nu/nu mouse xenografted with human SK-OV-3 cells measured in tumor at 60 mg/kg, po qd by uHPLC-MS/MS analysis
In series [9] the target is Indoleamine 2,3-dioxygenase 1 (Mus musculus) (UniProt P28776). Description: In vivo inhibition of IDO1 in nu/nu mouse xenografted with human SK-OV-3 cells assessed as reduction in kynurenine level at 60 mg/kg, po qd by HPLC-MS/MS analysis relative to control. It counts as functional, organism-based.
A short description of series [10]: AUC (0 to 24 hrs) in nu/nu mouse xenografted with human SK-OV-3 cells measured in tumor at 100 mg/kg, po bid by uHPLC-MS/MS analysis. More on the design: time < 24 hr, route oral, dose 100 mg/kg. It counts as ADME, organism-based.

pIC50: −log10 of the molar value. Some results are limits rather than exact numbers.

Indoleamine 2,3-dioxygenase 1 (Mus musculus, UniProt P28776), sequence (P28776 whole entry): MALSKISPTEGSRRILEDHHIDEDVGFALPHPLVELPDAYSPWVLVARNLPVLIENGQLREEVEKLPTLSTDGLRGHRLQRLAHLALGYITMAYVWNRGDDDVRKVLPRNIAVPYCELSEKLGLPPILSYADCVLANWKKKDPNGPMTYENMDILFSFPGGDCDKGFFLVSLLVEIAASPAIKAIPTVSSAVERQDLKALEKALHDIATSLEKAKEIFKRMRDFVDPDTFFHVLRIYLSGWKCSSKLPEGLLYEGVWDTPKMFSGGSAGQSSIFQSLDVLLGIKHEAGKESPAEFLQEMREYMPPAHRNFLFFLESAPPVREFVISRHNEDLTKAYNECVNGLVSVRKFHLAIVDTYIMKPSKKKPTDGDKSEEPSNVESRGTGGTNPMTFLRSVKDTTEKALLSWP
T1 sequence (P14902 whole entry): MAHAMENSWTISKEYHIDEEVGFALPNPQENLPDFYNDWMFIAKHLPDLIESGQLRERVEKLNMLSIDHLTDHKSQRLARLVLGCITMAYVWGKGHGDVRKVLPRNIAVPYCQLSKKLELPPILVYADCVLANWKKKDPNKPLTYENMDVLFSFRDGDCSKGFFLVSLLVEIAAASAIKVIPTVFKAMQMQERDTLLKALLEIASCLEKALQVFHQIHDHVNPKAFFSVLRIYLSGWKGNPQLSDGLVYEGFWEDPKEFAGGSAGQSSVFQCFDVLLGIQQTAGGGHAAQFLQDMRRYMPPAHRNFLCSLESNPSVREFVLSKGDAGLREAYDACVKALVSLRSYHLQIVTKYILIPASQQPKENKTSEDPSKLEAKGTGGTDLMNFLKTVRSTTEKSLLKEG
Indoleamine 2,3-dioxygenase 1 (Mus musculus), sequence (P28776 whole entry, looked up): as the sequence (P28776 whole entry) above

As to `C[C@@H](C(=O)NC1CCCCC1)[C@H]1CC[C@@H](c2ccnc3ccc(F)cc32)CC1`, the pIC50 in series [1] is 6.54; in series [2] it was 6.33; in [3], 7.74. The amount remaining at 10 min, 0.5 µM in series [4] and in [5] was under 1% in each case.

In the case of `COc1ncc(NC(=O)[C@H](C)[C@H]2CC[C@@H](c3ccnc4ccc(F)cc43)CC2)cn1`, the pIC50 was 7.04 in series [1], 7.10 in series [2] and 8.00 in [3]. The amount remaining at 10 min, 0.5 µM worked out at 51% in series [4] and 73% in series [5].

With `C[C@@H](NC(=O)c1ccccc1Cl)[C@H]1CC[C@@H](c2ccnc3ccc(F)cc32)CC1`, the negative logarithm of the IC50 (pIC50) in series [1] was 6.67; in series [2] it was 6.87; in series [3] it was 7.92. Moreover, the results for the share remaining at 10 min, 0.5 µM in series [4] and in [5] were 7% and 21%, respectively.

Take `C[C@@H](NC(=O)C1CCCCC1)[C@H]1CC[C@@H](c2ccnc3ccc(F)cc32)CC1`: the negative logarithm of the IC50 (pIC50) in [1] is 7.07; in series [2], 6.53; in [3], 7.92. The share remaining at 10 min, 0.5 µM in series [4] stood at 5%; in series [5], 6%.

As for `C[C@@H](NC(=O)c1cccc(Cl)c1)[C@H]1CC[C@@H](c2ccnc3ccc(F)cc32)CC1`, the pIC50 is 7.32 in [1], 7.01 in series [2] and 8.15 in series [3]. For the same molecule, the figures for the amount remaining at 10 min, 0.5 µM in [4] and in [5] were 9% and 39%, respectively.

`C[C@@H](NCc1ccc(Cl)cc1)[C@H]1CC[C@@H](c2ccnc3ccc(F)cc32)CC1`: the pIC50 in [1] is under 6.00; in series [2], under 6.00; in series [3], 6.13. The amount remaining at 10 min, 0.5 µM was 2% in series [4] and 34% in series [5].

Consider `COc1ccc(C(=O)N[C@H](C)[C@H]2CC[C@@H](c3ccnc4ccc(F)cc43)CC2)cc1N1CCOCC1`, for which the negative logarithm of the IC50 (pIC50) in series [1] was 7.70; in [2] it was 7.46; in [3], 8.15. The same molecule came in with a solubility in [6] of under 1 µg/mL. The amount remaining at 10 min, 0.5 µM in series [4] is 4%; in [5], 2%.

Take `C[C@@H](c1nc2ccc(Cl)cc2[nH]1)[C@H]1CC[C@@H](c2ccnc3ccc(F)cc32)CC1`: the negative-log IC50 (pIC50) in [1] is 7.92; in series [2], 7.55; in series [3] it was 8.40. For the same molecule, the figures for the share remaining at 10 min, 0.5 µM in [4] and in [5] were 12% and 48%, respectively.

As to `C[C@@H](NC(=O)c1ccc(-c2ccccc2)cc1)[C@H]1CC[C@@H](c2ccnc3ccc(F)cc32)CC1`, the figures for the pIC50 in [1], in series [2] and in [3] were 8.52, 7.66 and 8.70, respectively. Besides, the solubility in series [7] was under 1 µg/mL. For the same molecule, the amount remaining at 10 min, 0.5 µM was found to be 70% in [4] and 59% in series [5].

In series [8], `C[C@@H](C(=O)Nc1ccc(Cl)cc1)[C@H]1CC[C@@H](c2ccnc3ccc(F)cc32)CC1` returned an exposure (AUC) at 24 h of 34.9 µM·h. The inhibition in [9] was determined as 61%. Moreover, the amount remaining at 10 min, 0.5 µM in series [4] came to 31%; in series [5] it was 84%.

In series [10], `NS(=O)(=O)NCCNc1nonc1C(=NO)Nc1ccc(F)c(Br)c1` [EPACADOSTAT] showed an AUC at 24 h of 48 µM·h.

Turning to `C[C@@H](NC(=O)C12CCC(Cl)(CC1)CC2)[C@H]1CC[C@@H](c2ccnc3ccc(F)cc32)CC1`, the negative-log IC50 (pIC50) in series [1] is 7.25; in series [2], 6.24. Moreover, the share remaining at 10 min, 0.5 µM is 10% in series [4] and 9% in series [5].

Turning to `C[C@@H](CNC(=O)c1ccc(Cl)cc1)[C@H]1CC[C@@H](c2ccnc3ccc(F)cc32)CC1`, the pIC50 in [1] is 6.11; in [2], 6.80; in [3], 6.58. Also, the amount remaining at 10 min, 0.5 µM in series [4] was determined as 32%; in [5] it was 56%.

In the case of `C[C@@H](CNc1ccc(Cl)cc1)[C@H]1CC[C@@H](c2ccnc3ccc(F)cc32)CC1`, the negative-log IC50 (pIC50) was 7.21 in series [1], 7.36 in series [2] and 8.15 in series [3]. The fraction remaining at 10 min, 0.5 µM in series [4] and in series [5] was 80% in each case.

As to `C[C@@H](NC(=O)Nc1ccc(Cl)cc1)[C@H]1CC[C@@H](c2ccnc3ccc(F)cc32)CC1`, the pIC50 in [1] was 7.17; in series [2] it was 6.55; in series [3], 7.70. Also, the share remaining at 10 min, 0.5 µM in series [4] came out at 14%; in [5] it was 52%.

Take `C[C@H](NC(=O)[C@H](C)[C@H]1CC[C@@H](c2ccnc3ccc(F)cc32)CC1)c1ccc(Cl)cc1`: the pIC50 was 6.06 in [1], under 6.00 in [2] and 7.17 in series [3]. For the same molecule, the fraction remaining at 10 min, 0.5 µM was found to be 5% in series [4] and 19% in series [5].

For `C[C@@H](NS(=O)(=O)c1ccc(Cl)cc1)[C@H]1CC[C@@H](c2ccnc3ccc(F)cc32)CC1`, the values for the pIC50 in [1], in series [2] and in [3] were under 6.00, 6.32 and under 6.00, respectively. Besides, the amount remaining at 10 min, 0.5 µM in series [4] is under 1%; in [5], 29%.

Consider `C[C@@H](NC(=O)Cc1ccc(Cl)cc1)[C@H]1CC[C@@H](c2ccnc3ccc(F)cc32)CC1`, for which the negative logarithm of the IC50 (pIC50) in series [1] is 6.19; in series [2] it was 6.11; in [3], 6.90. Moreover, the fraction remaining at 10 min, 0.5 µM in series [4] was 2%; in series [5] it was 8%.

The record behind these values is ChEMBL document CHEMBL4673406, “Discovery and Preclinical Evaluation of BMS-986242, a Potent, Selective Inhibitor of Indoleamine-2,3-dioxygenase 1” (ACS Med Chem Lett, 2021).
